According to ChEMBL document CHEMBL1147919, “Syntheses and binding affinities of 6-nitroquipazine analogues for serotonin transporter. Part 5: 2'-Substituted 6-nitroquipazines” (Bioorg Med Chem, 2007):

Biological target: Sodium-dependent serotonin transporter (Rattus norvegicus, UniProt P31652)
Experiment: Displacement of [3H]citalopram from Sprague-Dawley rat SERT

Sequence of Sodium-dependent serotonin transporter (P31652 whole entry): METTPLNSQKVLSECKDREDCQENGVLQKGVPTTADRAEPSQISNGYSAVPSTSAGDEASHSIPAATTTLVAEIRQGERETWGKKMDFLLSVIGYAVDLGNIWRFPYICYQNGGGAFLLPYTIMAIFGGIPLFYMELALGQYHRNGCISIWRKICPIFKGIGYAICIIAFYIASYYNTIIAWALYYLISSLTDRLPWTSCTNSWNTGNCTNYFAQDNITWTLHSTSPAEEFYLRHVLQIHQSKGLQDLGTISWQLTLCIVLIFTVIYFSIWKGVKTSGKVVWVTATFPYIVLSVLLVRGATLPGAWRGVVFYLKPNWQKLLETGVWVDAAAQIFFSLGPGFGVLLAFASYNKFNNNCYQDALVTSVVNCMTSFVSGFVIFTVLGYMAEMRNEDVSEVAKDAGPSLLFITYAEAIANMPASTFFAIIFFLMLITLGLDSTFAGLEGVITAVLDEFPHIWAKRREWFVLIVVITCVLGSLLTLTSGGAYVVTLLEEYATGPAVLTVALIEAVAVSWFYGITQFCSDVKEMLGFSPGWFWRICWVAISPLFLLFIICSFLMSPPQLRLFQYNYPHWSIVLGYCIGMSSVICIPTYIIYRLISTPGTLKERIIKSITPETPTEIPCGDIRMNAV

| SMILES | Ki |
| --- | --- |
| CCCCOCC1CNCCN1c1ccc2cc([N+](=O)[O-])ccc2n1 (stereo unspecified) | 15.4 nM |
| CCCOCC1CNCCN1c1ccc2cc([N+](=O)[O-])ccc2n1 (stereo unspecified) | 5.67 nM |
| O=[N+]([O-])c1ccc2nc(N3CCNCC3)ccc2c1 [6-NITROQUIPAZINE] | 0.24 nM |

More lines, in order of falling Ki, values ahead:

| Ki | SMILES |
| --- | --- |
| 0.68 nM | COCC1CNCCN1c1ccc2cc([N+](=O)[O-])ccc2n1 (stereo unspecified) |
| 0.43 nM | O=[N+]([O-])c1ccc2nc(N3CCNCC3CO)ccc2c1 (stereo unspecified) |
| 0.43 nM | CCOCC1CNCCN1c1ccc2cc([N+](=O)[O-])ccc2n1 (stereo unspecified) |
